In this test the test system is rhythmic bladder contractions induced by substance P. As to the kind of experiment: Inhibitory effect on the rhythmic bladder contractions induced by substance P in anesthetized rats. Format: in vivo, rat. The settings on record: time during which frequency of rhythmic contraction was completely inhibited, 0.25 mg/kg of the compound, substance P infusion. On the procedure: Inhibitory effect on the rhythmic bladder contractions induced by substance P in anesthetized rats
For the experiments, Sprague-Dawley female rats (9 to 12 weeks old) weighing between 200 to 300 g were used. After urethane anesthetization (subcutaneously administered with a dose of 1.2 g/kg), cannulae were placed in both right and left femoral veins. One intravenous catheter was used for administration of compounds, and the other was for the substance P (0.33 μg/kg/min) infusion. We also cannulated into ureter to pass urine. Polyethylene catheters were inserted into carotid artery for continuous monitoring of arterial blood pressure and heart rate. For continuous infusion, transurethral bladder catheter was inserted into the bladder through the urethra and tied in place by a ligature around the urethral orifice. One end of the catheter was attached to a pressure transducer in order to measure intravesical pressure. The other end of the catheter was used for infusion of saline into the bladder. After stabilization of blood pressure and heart rate and after the bladder was emptied, cystometry was performed by filling the bladder slowly with about 0.6 ml of saline. After about 10 minutes, intravenous infusion of substance P (0.33 μg/kg/min) was started for stabilization of the micturition reflex. Compounds were administered after stable rhythmic bladder contraction was obtained over 15 minutes. All compounds were dissolved or suspended in saline containing 0.5% Tween 80 for intravenous administration (0.1 ml/kg).
A 100% inhibition time (minute) of the selected compounds of the present invention is shown in the following Table 65 with a rank of A, B or C. These ranges are as mentioned below. A≧20>B≧10>C (minute)

As to `O=C(O)Cc1sc(-c2cc3ccccc3s2)nc1-c1ccc(Cl)c(F)c1` [Preparation Example 583], the “100% inhibition time range” value is recorded as “B (A≧20>B≧10>C (minute))”. Turning to `O=C(O)Cc1nc(-c2ccc3nccn3c2)oc1-c1ccc(Cl)s1` [Preparation Example 630], the “100% inhibition time range” value was “C (A≧20>B≧10>C (minute))”. Turning to `CSc1cccc(-c2nc(CC(=O)O)c(-c3ccc(Cl)s3)o2)c1` [Preparation Example 457], the “100% inhibition time range” value is “B (A≧20>B≧10>C (minute))”. Next, `O=C(O)Cc1nc(-c2ccc(F)cc2)oc1-c1ccccc1O` [Preparation Example 237]: “C (A≧20>B≧10>C (minute))”; `Cc1cc(-c2nc(CC(=O)O)c(-c3ccc(Cl)s3)o2)sc1C` [Preparation Example 467]: “A (A≧20>B≧10>C (minute))”; `O=C(O)Cc1nc(-c2ccc(Cl)cc2)oc1-c1cccnc1` [Preparation example 142]: “C (A≧20>B≧10>C (minute))”.

As to `Cl.Cl.N#CCCc1[nH]c(-c2ccc(F)cc2)nc1-c1cccnc1` [Preparation example 43, 5-(2-cyanoethyl)-2-(4-fluorophenyl)-4-(3-pyridyl)-imidazole dihydrochloride], the “100% inhibition time range” value was “C (A≧20>B≧10>C (minute))”. Next, `CCOC(=O)Cc1nc(-c2ccc(N(C)C)nc2)oc1-c1cccs1` [Preparation Example 331]: “A (A≧20>B≧10>C (minute))”. The result for `Cc1ccc(-c2nc(CC(=O)O)c(-c3cccs3)o2)cc1` [Preparation Example 156] reads “B (A≧20>B≧10>C (minute))”; that for `CC(C)c1ncc(-c2nc(CC(=O)O)c(-c3ccsc3)o2)cn1` [Preparation Example 476], “B (A≧20>B≧10>C (minute))”; that for `Cc1ccc(-c2nc(CC(=O)O)c(-c3ccsc3)o2)cc1` [Preparation Example 198], “C (A≧20>B≧10>C (minute))”. The result for `CC(C)COc1cc(-c2oc(-c3ccc(F)cc3)nc2CC(=O)O)ccc1O` [Preparation Example 292] reads “C (A≧20>B≧10>C (minute))”. With `O=C(O)Cc1nc(-c2cc3ccccc3s2)oc1-c1ccc(Cl)c(F)c1` [Preparation Example 447], the “100% inhibition time range” value is “B (A≧20>B≧10>C (minute))”. The result for `O=C(O)Cc1nc(-c2ccc3ncccc3c2)oc1-c1ccsc1` [Preparation Example 442] reads “C (A≧20>B≧10>C (minute))”.

As for `O=C(O)Cc1[nH]c(-c2cc3ccccc3s2)nc1-c1ccc(Cl)s1` [Preparation Example 351], the “100% inhibition time range” value is listed as “C (A≧20>B≧10>C (minute))”. Next, `COc1ccc(-c2nc(CC(=O)O)c(-c3ccc(Cl)s3)o2)cc1` [Preparation Example 523]: “B (A≧20>B≧10>C (minute))”; `O=C(Cc1nc(-c2ccc(F)cc2)oc1-c1ccsc1)NS(=O)(=O)c1cccnc1` [Preparation Example 371]: “C (A≧20>B≧10>C (minute))”. Next, `CSCc1ccc(-c2nc(CC(=O)O)c(-c3ccc(Cl)s3)o2)cc1` [Preparation Example 448]: “C (A≧20>B≧10>C (minute))”. For `COc1ccc(-c2nc(-c3ccc(Cl)c(F)c3)c(CC(=O)O)s2)cc1` [Preparation Example 582], the “100% inhibition time range” value is given as “A (A≧20>B≧10>C (minute))”.

As to `COCc1nc(-c2cccc(F)c2)[nH]c1-c1ccccc1` [Preparation example 123], the “100% inhibition time range” value is “C (A≧20>B≧10>C (minute))”.

On to `CCSc1ccc(-c2nc(CC(=O)O)c(-c3ccc(Cl)s3)o2)cc1` [Preparation Example 449], for which the “100% inhibition time range” value is reported as “B (A≧20>B≧10>C (minute))”.

As to `CCOc1c(F)cc(-c2oc(-c3ccc(F)cc3)nc2CC(=O)O)cc1OC` [Preparation Example 251], the “100% inhibition time range” value was “C (A≧20>B≧10>C (minute))”.
